# Counter-ions that a name gives are not always drawn.
# Tests used:
# Assay type in all cases: in vivo
# [1] = system: dermatitis manifesting NC mice; assay: Test Example 3: effect on dermatitis manifesting NC mouse models (dermatitis score); conditions: 0.01% in 100% ethanol, 200 μl on dorsal back seven times a week for 4 weeks; FIGS. 1 and 2; P<0.05
# Procedure: By suitably modifying a method known to the skilled artisan (Jpn. J. Pharmacol. 76, 175-183 (1998) Jun Hiroi, et al. Effects of Tacrolimus Hydrate (FK-506) Ointment on Spontaneous Dermatitis in NC/Nga Mice), the following test was conducted in order to confirm the antipruritic effect of prostaglandins. (Method) Animals: Four-week old SPF NC mice (male) were purchased from Japan SLC; right after their arrival, the SPF NC mice were kept together with dermatitis manifesting male NC mice (older than 20 weeks) for 2 weeks under the following conditions so as to induce itch-evoked scratching behavior. A group of mice manifesting dermatitis and another group of mice not manifesting dermatitis, each consisting of four animals, were allowed to cohabit in a sawdust cage (34×17×39 cm) and kept in an animal house set at room temperature (23±3° C.) and at a humidity of 55±15% under illumination for 12 hours (from 7:00 am to […]). After 2-wk cohabitation, the purchased mice were taken out of the cage and transferred into another cage, where a group of 8 animals were further kept for 14 weeks until the test. […] The mean value ± standard deviation was calculated from the dermatitis scores for each group, and then statistically processed by t-test to determine statistical significance between each drug administration group and ethanol-treated group.
# [2] = system: NC/Nga mice manifesting atopic dermatitis; assay: Test Example 2: effect on the spontaneous, itch-evoked scratching behavior of NC mice (percent itch suppression); conditions: for % Inhibition (percent itch suppression): total 24-hr scratching counts before vs after, N = 8
# Procedure: Twenty-week-old NC/Nga mice each weighing about 30 g and manifesting atopic dermatitis were purchased from SLC and subjected to the following experiment. A magnet was buried in both hind paws of each mouse and by detecting its magnetism, the movement of the paws was measured with an itch measuring system (product of Neuroscience). Among the scratching actions, those lasting 1.5 seconds or longer were considered itch-evoked and their number was counted continuously. […] Prostaglandin E2 (PGE2; Cayman Chemical), prostaglandin D2 (PGD2; Cayman Chemical), limaprost (synthetic), sulprostone (synthetic) and beraprost (synthetic) were used as drugs according to the present invention. The subsequent 24-hr itch-evoked scratching behavior was measured and the number of itch-evoked scratchings after drug application was compared with the initial count. The experimental data was processed to calculate the percent itch suppression on the basis of the total 24-hr itch-evoked scratching counts before and after drug application (Table 2). [formula]
# For significance testing, the itch-evoked scratching counts that were obtained before and after drug application from individual animals in each group treated with a specific concentration of drug were processed by a paired t-test. Differences with a significance level of 0.5% or less were determined as “significant.”
# The same test was repeated using 100% ethanol as a control and, as comparative drugs, dexamethasone (a steroid; Wako Pure Chemical Industries, Ltd.), tacrolimus (FK-506, an immunosuppressive; Fujisawa Pharmaceutical Co., Ltd.) and chlorpheniramine maleate (an antihistamine; Kongo Chemical Co., Ltd.) at the concentrations shown in Table 2 below, provided that chlorpheniramine maleate was administered orally.
# [3] = system: NC/Nga mice manifesting atopic dermatitis; assay: Test Example 1: effect on the spontaneous, itch-evoked scratching behavior of NC mice; conditions: for % Occurrence of scratching behavior: 0.1% in 100% ethanol, 0.2 ml/mouse on dorsal skin, count before drug application set to 100%, scratchings 1.5 seconds or longer, N = 6
# Procedure: Twenty-week-old NC/Nga mice each weighing about 30 g and manifesting atopic dermatitis were purchased from SLC and subjected to the following experiment. A magnet was buried in both hind paws of each mouse and by detecting its magnetism, the movement of the paws was measured with an itch measuring system (product of Neuroscience). Among the scratching actions, those lasting 1.5 seconds or longer were considered itch-evoked and their number was counted continuously. […] Since there was a wide range of variation among individual animals, the experimental data was scored assuming that the initial count before drug application was set to 100%. The same test was repeated using 100% ethanol as a control and dexamethasone (a steroid; Wako Pure Chemical Industries, Ltd.) and tacrolimus (an immunosuppressive; Fujisawa Pharmaceutical Co., Ltd.) as comparative drugs.
# [4] = system: NC/Nga mice manifesting atopic dermatitis; assay: Case 2: effects of external use of tacrolimus and dexamethasone on spontaneous itch-evoked scratching behavior in NC/Nga mice; conditions: 0.1% in 100% ethanol, 200 μl applied onto head and dorsal skin; paw movements lasting 1.5 seconds or longer; before application: tacrolimus group 600 ± 64, dexamethasone group 567 ± 77
# Procedure: Experimental animals used were 14-week-old NC/Nga male mice, each weighing about 30 g and manifesting atopic dermatitis, and were divided into groups of 6 mice each.
# To perform this test, a commercially available itch measuring system (product of Neuroscience) was used. After magnets for scratch measurement were inserted into both hind paws of each of the above animals, the animals were individually placed in a measurement cage and measured for the number of scratchings over 24 hours (the value before drug application). Then, 200 μl each of 0.1% tacrolimus (Fujisawa Pharmaceutical Co., Ltd.) and dexamethasone (Wako Pure Chemical Industries, Ltd.) dissolved in 100% ethanol were applied onto the head and dorsal skin, followed by recording again the number of scratchings over 24 hours (the value after drug application). The control group received 100% ethanol alone. The results obtained were processed to score itch-evoked scratching behavior, assuming that each paw movement lasting 1.5 seconds or longer was counted as one scratch reflex, followed by statistical analysis to determine statistical significance between the values before and after drug application.
# [5] = concentration 0.01% in 100% ethanol, 0.2 ml/mouse on dorsal skin
# [6] = concentration 0.1% in 100% ethanol, 0.2 ml/mouse on dorsal skin
# [7] = external application of 0.1%, same extent as dexamethasone and tacrolimus
smiles,measurement,setting,value
"CC#CCC(C)[C@H](O)/C=C/[C@@H]1[C@H]2c3cccc(CCCC(=O)O)c3O[C@H]2C[C@H]1O (mixture of isomers) [Beraprost, beraprost]",effect on dermatitis scores compared to the ethanol-treated group,[1],significant suppressive effect
same,% Inhibition (percent itch suppression),[2]; [5],45.6%
same,% Inhibition (percent itch suppression),[2]; [6],56.9%
"CN(C)CCC(c1ccc(Cl)cc1)c1ccccn1 (centres unmarked) [Chlorpheniramine, chlorpheniramine maleate]",% Inhibition (percent itch suppression),"[2]; 10 mg/kg, p.o.",3.56%
same,suppression of spontaneous itch-evoked scratching behavior (in words),"[2]; administered orally, 10 mg/kg",no suppression
"C[C@@H]1C[C@H]2[C@@H]3CCC4=CC(=O)C=C[C@]4(C)[C@@]3(F)[C@@H](O)C[C@]2(C)[C@@]1(O)C(=O)CO [Dexamethasone, dexamethasone]",% Inhibition (percent itch suppression),[2]; [6],49.5%
same,% Occurrence of scratching behavior,[3],50 ± 9 %
same,"number of scratchings over 24 hours, after drug application",[4],286 ± 52
"CCCC[C@H](C)C[C@H](O)/C=C/[C@H]1[C@H](O)CC(=O)[C@@H]1CCCC/C=C/C(=O)O [Limaprost, limaprost]",effect on dermatitis scores compared to the ethanol-treated group,[1],significant suppressive effect
same,% Inhibition (percent itch suppression),"[2]; concentration 0.001% in 100% ethanol, 0.2 ml/mouse on dorsal skin",36.2%
same,% Inhibition (percent itch suppression),[2]; [5],79.9%
"CCCCC[C@H](O)/C=C/[C@H]1C(=O)C[C@H](O)[C@@H]1C/C=C\CCCC(=O)O [PGD2, prostaglandin D2]",% Inhibition (percent itch suppression),[2]; [5],56.3%
"CCCCC[C@H](O)/C=C/[C@H]1[C@H](O)CC(=O)[C@@H]1C/C=C\CCCC(=O)O [PGE2, prostaglandin E2]",% Inhibition (percent itch suppression),[2]; [6],54.3%
same,effect on spontaneous itch-evoked scratching behavior in NC mice (in words),[2]; [7],strongly reduced
same,% Occurrence of scratching behavior,[3],46 ± 10 %
same,effect on spontaneous itch-evoked scratching behavior (in words),[3]; [7],strongly reduced
"CS(=O)(=O)NC(=O)CCC/C=C\C[C@H]1C(=O)C[C@@H](O)[C@@H]1/C=C/[C@@H](O)COc1ccccc1 [Sulprostone, sulprostone]",% Inhibition (percent itch suppression),[2]; [5],24.0%
"C=CC[C@@H]1/C=C(\C)C[C@H](C)C[C@H](OC)[C@H]2O[C@@](O)(C(=O)C(=O)N3CCCC[C@H]3C(=O)O[C@H](/C(C)=C/[C@@H]3CC[C@@H](O)[C@H](OC)C3)[C@H](C)[C@@H](O)CC1=O)[C@H](C)C[C@@H]2OC [Tacrolimus, tacrolimus]",% Inhibition (percent itch suppression),[2]; [6],55.5%
same,% Occurrence of scratching behavior,[3],45 ± 8 %
same,"number of scratchings over 24 hours, after drug application",[4],267 ± 45
